This is an account of results in ChEMBL document CHEMBL4680227, “Design and synthesis of selective degraders of EGFR mutant” (Eur J Med Chem, 2020).

The target in data set [1] is T1, von Hippel-Lindau disease tumor suppressor/Epidermal growth factor receptor (Homo sapiens, UniProt P00533+P40337). Put plainly: Protac activity at VHL/EGFR in human A431 cells assessed as EGFR degradation by Western blot analysis. The class given is cell-based. The note with it: a-431.
The target in data set [2] is Baculoviral IAP repeat-containing protein 2/Epidermal growth factor receptor (Homo sapiens, UniProt P00533+Q13490). Put plainly: Protac activity at cIAP1/EGFR in human A431 cells assessed as EGFR degradation by Western blot analysis. The class given is cell-based. The note with it: a-431.
Data set [3] addresses Protein cereblon/Epidermal growth factor receptor (Homo sapiens, UniProt P00533+Q96SW2). Put plainly: Protac activity at CRBN/EGFR in human A431 cells assessed as EGFR degradation by Western blot analysis. In kind it is cell-based. Particulars: a-431.
Data set [4] deals with E3 ubiquitin-protein ligase Mdm2/Epidermal growth factor receptor (Homo sapiens, UniProt Q00987+P00533). Put plainly: Protac activity at MDM2/EGFR in human A431 cells assessed as EGFR degradation by Western blot analysis. The class given is cell-based. The note with it: a-431.
For data set [5], the target named is E3 ubiquitin-protein ligase Mdm2/Epidermal growth factor receptor (Homo sapiens, UniProt Q00987+P00533, T790M/L858M). Put plainly: Protac activity at MDM2/EGFR L858R/T790M mutant in human NCI-H1975 cells assessed as EGFR degradation by Western blot analysis. In kind it is cell-based.
Data set [6] relates to von Hippel-Lindau disease tumor suppressor/Epidermal growth factor receptor (Homo sapiens), P00533+P40337 [L858R,T790M]. Put plainly: (§1) Protac activity at VHL/EGFR L858R/T790M mutant in human NCI-H1975 cells assessed as EGFR degradation by Western blot analysis. The class given is cell-based.
Data set [7] deals with von Hippel-Lindau disease tumor suppressor/Epidermal growth factor receptor (Homo sapiens, UniProt P00533+P40337, T790M/L858R). Described as §1. The class given is cell-based.
For data set [8], the system named is von Hippel-Lindau disease tumor suppressor/Epidermal growth factor receptor (Homo sapiens), P00533+P40337 [L858R,T790M]. As to the kind of experiment: Protac activity at VHL/EGFR L858R/T790M mutant in human NCI-H1975 cells assessed as EGFR degradation measured after 16 hrs by Western blot analysis. The class given is cell-based.
For data set [9] the test system is unchanged. As to the kind of experiment: Protac activity at VHL/EGFR L858R/T790M mutant in human NCI-H1975 cells assessed as reduction in ERK phosphorylation measured after 16 hrs by Western blot analysis. In kind it is cell-based.
The target in data set [10] is Epidermal growth factor receptor (Homo sapiens, UniProt P00533). Put plainly: Inhibition of wild-type EGFR (unknown origin) using Poly (Glu, Tyr) 4:1 as substrate measured after 1 hr by ELISA.
Data set [11] deals with von Hippel-Lindau disease tumor suppressor/Epidermal growth factor receptor (Homo sapiens), P00533+P40337 [L858R,T790M]. Put plainly: Protac activity at VHL/EGFR L858R/T790M mutant in human NCI-H1975 cells assessed as reduction in ERK phosphorylation at >2000 nM measured after 16 hrs by Western blot analysis. The class given is cell-based. Particulars: dose nM >2000, time 16.0 hrs.

Data set [12] deals with T1, von Hippel-Lindau disease tumor suppressor/Epidermal growth factor receptor. As to the kind of experiment: Protac activity at VHL/EGFR in human A431 cells assessed as EGFR degradation up to 10000 nM measured after 16 hrs by Western blot analysis. The note with it: A-431, dose nM <=10000, time 16.0 hrs. In kind it is cell-based.
The nature of data set [13]: Effect on AKT level in human NCI-H1975 cells up to 10000 nM treated 8 hrs post serum starvation measured after 16 hrs by Western blot analysis. The class given is ADME, cell-based. The note with it: nci-h1975, 16 h.
In data set [14] the test system is von Hippel-Lindau disease tumor suppressor/Epidermal growth factor receptor (Homo sapiens), P00533+P40337 [L858R,T790M]. Put plainly: Protac activity at VHL/EGFR L858R/T790M mutant in human NCI-H1975 cells assessed as reduction in AKT phosphorylation at >2000 nM measured after 16 hrs by Western blot analysis. The class given is cell-based. Particulars: dose nM >2000, time 16.0 hrs.

Data set [15] shares this test system. Put plainly: Protac activity at VHL/EGFR L858R/T790M mutant in human NCI-H1975 cells assessed as induction of EGFR degradation at 200 nM measured after 12 hrs by Western blot analysis relative to control. In kind it is cell-based.
For data set [16] the test system is unchanged. As to the kind of experiment: Protac activity at VHL/EGFR L858R/T790M mutant in human NCI-H1975 cells assessed as induction of EGFR degradation at 100 nM in presence of EGFR L858R/T790M mutant ligand XTF-262 by Western blot analysis. The class given is cell-based.
Data set [17] has the same test system. As to the kind of experiment: Protac activity at VHL/EGFR L858R/T790M mutant in human NCI-H1975 cells assessed as EGFR degradation at >2000 nM measured after 16 hrs by Western blot analysis. In kind it is cell-based. Particulars: dose nM >2000, time 16.0 hrs.
Data set [18] has the same test system. Put plainly: Protac activity at VHL/EGFR L858R/T790M mutant in human NCI-H1975 cells assessed as induction of EGFR degradation at 100 nM in presence of VHL ligand (S,R,S)-AHPC osimertinib by Western blot analysis. In kind it is cell-based.
For data set [19] the test system is unchanged. As to the kind of experiment: Protac activity at VHL/EGFR L858R/T790M mutant in human NCI-H1975 cells assessed as reduction in AKT phosphorylation measured after 16 hrs by Western blot analysis. The class given is cell-based.
For data set [20] the test system is unchanged. As to the kind of experiment: Protac activity at VHL/EGFR L858R/T790M mutant in human NCI-H1975 cells assessed as induction of EGFR degradation at 10 to 100 nM measured after 12 hrs in presence of proteasome inhibitor MG132 by Western blot analysis. In kind it is cell-based. The note with it: dose 10-100 nM.
Data set [21] addresses T1, von Hippel-Lindau disease tumor suppressor/Epidermal growth factor receptor. As to the kind of experiment: Protac activity at VHL/EGFR in human A431 cells assessed as reduction in ERK phosphorylation up to 10000 nM measured after 16 hrs by Western blot analysis. Particulars: A-431, dose nM <=10000, time 16.0 hrs. In kind it is cell-based.
The test system of data set [22] is von Hippel-Lindau disease tumor suppressor/Epidermal growth factor receptor (Homo sapiens), P00533+P40337 [L858R,T790M]. Put plainly: Protac activity at VHL/EGFR L858R/T790M mutant in human NCI-H1975 cells assessed as induction of EGFR degradation at 200 nM measured after 6 hrs by Western blot analysis relative to control. The class given is cell-based.
Data set [23] in a line: Effect on ERK level in human NCI-H1975 cells up to 10000 nM treated 8 hrs post serum starvation measured after 16 hrs by Western blot analysis. The class given is ADME, cell-based. Particulars: nci-h1975, 16 h.
For a further data set, the system named is NCI-H1975. Put plainly: Antiproliferative activity against human NCI-H1975 cells measured after 72 hrs by CCK8 assay. In kind it is functional, cell-based. Particulars: NCI-H1975, 72 h.
Data set [24] has as its system von Hippel-Lindau disease tumor suppressor/Epidermal growth factor receptor (Homo sapiens), P00533+P40337 [L858R,T790M]. As to the kind of experiment: Protac activity at VHL/EGFR L858R/T790M mutant in human NCI-H1975 cells assessed as induction of EGFR degradation at 100 nM in presence of EGFR L858R/T790M mutant ligand osimertinib by Western blot analysis. In kind it is cell-based.

For data set [25], the target named is T1, von Hippel-Lindau disease tumor suppressor/Epidermal growth factor receptor. Put plainly: Protac activity at VHL/EGFR in human A431 cells assessed as reduction in AKT phosphorylation up to 10000 nM measured after 16 hrs by Western blot analysis. In kind it is cell-based. The note with it: A-431, dose nM <=10000, time 16.0 hrs.
Data set [26] has as its system von Hippel-Lindau disease tumor suppressor/Epidermal growth factor receptor (Homo sapiens), P00533+P40337 [L858R,T790M]. Put plainly: Protac activity at VHL/EGFR L858R/T790M mutant in human NCI-H1975 cells assessed as induction of EGFR degradation at 200 nM measured after 24 hrs by Western blot analysis. The class given is cell-based.
Data set [27] has the same test system. Put plainly: Protac activity at VHL/EGFR L858R/T790M mutant in human NCI-H1975 cells assessed as reduction in EGFR autophosphorylation measured after 16 hrs by Western blot analysis. The class given is cell-based.
The target of data set [28] is Epidermal growth factor receptor (Homo sapiens, UniProt P00533, L858R/T790M). As to the kind of experiment: Inhibition of EGFR L858R/T790M (unknown origin) using Poly (Glu, Tyr) 4:1 as substrate measured after 1 hr by ELISA.
Data set [29] relates to von Hippel-Lindau disease tumor suppressor/Epidermal growth factor receptor (Homo sapiens), P00533+P40337 [L858R,T790M]. Put plainly: Protac activity at VHL/EGFR L858R/T790M mutant in human NCI-H1975 cells assessed as induction of EGFR degradation at 10 to 100 nM measured after 1 hr in presence of protein synthesis inhibitor cycloheximide by Western blot analysis. Particulars: dose 10-100 nM. In kind it is cell-based.

Activity calls are given as the source filed them. No cut-off for these calls is given here. Bounds are passed on as bounds.

In the case of `C=CC(=O)Nc1cccc(-n2c(=O)cc(C)c3cnc(Nc4ccc(N5CCN(CCCC(=O)N[C@H](C(=O)N6C[C@H](O)C[C@H]6C(=O)NCc6ccc(-c7scnc7C)cc6)C(C)(C)C)CC5)cc4OC)nc32)c1`, the DC50 in data set [1] was more than 2 µM.

Turning to `C=CC(=O)Nc1cccc(-n2c(=O)cc(C)c3cnc(Nc4ccc(N5CCN(C(=O)CCCCCCCCCCCNC(=O)[C@H](CC(C)C)NC(=O)[C@@H](O)[C@H](N)Cc6ccccc6)CC5)cc4OC)nc32)c1`, the DC50 in data set [2] is more than 2 µM.

Turning to `C=CC(=O)Nc1cccc(-n2c(=O)cc(C)c3cnc(Nc4ccc(N5CCN(C(=O)CCCCCCCCCCC(=O)Nc6cccc7c6C(=O)N(C6CCC(=O)NC6=O)C7=O)CC5)cc4OC)nc32)c1` (stereo unspecified), the DC50 in [3] was more than 2 µM.

In the case of `C=CC(=O)Nc1cccc(-n2c(=O)cc(C)c3cnc(Nc4ccc(N5CCN(C(=O)CCCCCCCCCNC(=O)c6ccc(NC(=O)[C@@H]7N[C@@H](CC(C)(C)C)[C@](C#N)(c8ccc(Cl)cc8F)[C@H]7c7cccc(Cl)c7F)c(OC)c6)CC5)cc4OC)nc32)c1`, the values for the DC50 in [4] and in data set [5] were more than 2 µM and 0.313 µM, respectively.

`C=CC(=O)Nc1cccc(-n2c(=O)cc(C)c3cnc(Nc4ccc(N5CCN(C(=O)CCCCCCCCCCC(=O)N[C@H](C(=O)N6C[C@H](O)C[C@H]6C(=O)NCc6ccc(-c7scnc7C)cc6)C(C)(C)C)CC5)cc4OC)nc32)c1`: in data set [6], the Activity result was “Dose-dependent effect”. In addition, the DC50 in [1] was more than 2 µM.

Take `C=CC(=O)Nc1cccc(-n2c(=O)cc(C)c3cnc(Nc4ccc(N5CCN(C(=O)CCCCCCCCC(=O)N[C@H](C(=O)N6C[C@H](O)C[C@H]6C(=O)NCc6ccc(-c7scnc7C)cc6)C(C)(C)C)CC5)cc4OC)nc32)c1`: the figures for the 50% degradation concentration (DC50) in data set [7] and in [1] were 0.069 µM and more than 2 µM, respectively.

In the case of `C=CC(=O)Nc1cccc(-n2c(=O)cc(C)c3cnc(Nc4ccc(N5CCN(CCCCCC(=O)N[C@H](C(=O)N6C[C@H](O)C[C@H]6C(=O)NCc6ccc(-c7scnc7C)cc6)C(C)(C)C)CC5)cc4OC)nc32)c1`, the Activity entry in data set [8] is “Dose-dependent effect”; in data set [9], “Dose-dependent effect”; in data set [13], “Non-Toxic”; in [15] it was 89%; in [19] it was “Dose-dependent effect”; in data set [22], 63%. In addition, the Activity entry in data set [23] was “Non-Toxic”; in [27], “Dose-dependent effect”. For the same molecule, the half-inhibitory concentration (IC50) in data set [10] is more than 1 µM; in the data set with NCI-H1975, 0.506 µM; in data set [28], 0.0193 µM. Also, the outcome in data set [11], in data set [12], in data set [14], in data set [16], in data set [18] and in data set [20] was inactive. The result in data set [21], in data set [24], in data set [25] and in [26] was inactive. Besides, the DC50 was 0.0059 µM in [7] and more than 2 µM in [1]. For the same molecule, the outcome in data set [17] and in data set [29] was Active.

`C=CC(=O)Nc1cccc(-n2c(=O)cc(C)c3cnc(Nc4ccc(N5CCN(CCCCCCCCCCCC(=O)N[C@H](C(=O)N6C[C@H](O)C[C@H]6C(=O)NCc6ccc(-c7scnc7C)cc6)C(C)(C)C)CC5)cc4OC)nc32)c1`: the DC50 in data set [7] was more than 2 µM; in [1], 0.0503 µM.
